Columns and labels:
[1] = tested on: multidrug-resistant S. aureus; assay: Sensitization of antibiotic-resistant bacteria (compound plus breakpoint antibiotic concentration); type: cell-based, Staphylococcus aureus; conditions: for Effect on viability in combination with chloramphenicol: chloramphenicol 8 mg/L; for Effect on viability in combination with chloramphenicol / Effect on viability in combination with gentamicin: 24 h; for Effect on viability in combination with gentamicin: gentamicin 1 mg/L
Description: (§1) Clinically relevant antibiotics were selected for sensitization testing according to the European Committee on Antimicrobial Susceptibility Testing (EUCAST). Neither colistin and imipenem at breakpoint concentrations (according to EUCAST, […] and […]) affected the growth of the multidrug-resistant clinical strain of P. aeruginosa. Similarly, neither chloramphenicol and gentamicin at breakpoint concentrations ([…], respectively) affected the multidrug-resistant clinical strain of S. aureus. Flavonoids and their derivatives (1–40 µM) were used in combination therapy, along with the breakpoint concentration of antibiotics. After co-incubation, the minimum inhibitory concentration of flavonoids inhibiting the visible growth of bacteria was determined (Table 2).
(§2) Clinical isolates of P. aeruginosa and S. aureus were obtained from the General University Hospital in Prague (Prague, Czech Republic). P. aeruginosa was resistant to ciprofloxacin, oxacillin, ticarcillin, colistin, gentamicin, and imipenem. S. aureus was resistant to ciprofloxacin, gentamicin, erythromycin, chloramphenicol, clindamycin, oxacillin, cefotaxime, and vancomycin. Bacteria were cultivated in Mueller–Hinton broth (MH broth, Merck). The susceptibility of the bacteria was evaluated by the minimum inhibitory concentrations (MIC). The MIC of derivatives in the presence of the antibiotic cut-off concentration was determined according to ISO 20776-1: 2020. The antibiotic cut-off concentration was chosen according to the European Committee on Antimicrobial Susceptibility Testing (EUCAST, Clinical breakpoints—bacteria (ver. 11.0), 1 January 2021). The 40 µM concentration of the derivatives was chosen as the highest concentration for the tests. Cell viability was determined by measuring absorbance (A590 nm) after 24 h incubation at 37 °C, 150 rpm.

[2] = tested on: multidrug-resistant P. aeruginosa; assay: as above; type: cell-based, Pseudomonas aeruginosa; conditions: flavonoid 40 µM, 24 h; for Effect on viability in combination with colistin: colistin 2 mg/L; for Effect on viability in combination with imipenem: imipenem 4 mg/L; as to Effect on viability in combination with imipenem: key: -: no effect (100% viability) was observed up to the highest flavonolignan concentration tested (>40 µM); reversion of resistance: the compound reversed the resistant phenotype to a sensitive one
Description: as §1, §2

[3] = tested on: human dermal fibroblasts (HDF); assay: Cytotoxicity (resazurin assay, 72 h); type: cell-based; conditions: Fibroblast
Description: (§3) The cytotoxicity of flavonoids and their halogenated derivatives was determined as their ability to decrease the viability of human dermal fibroblasts (HDF) and doxorubicin-resistant human ovarian carcinomas (HOC/DOX). Both cell lines were cultivated in Dulbecco’s Modified Eagle’s Medium supplemented with fetal bovine serum (FBS, 10% v/v) and 1 × antibiotic antimycotic solution and incubated at 37 °C in the atmosphere of 5% CO2. The experiment was performed according to a previously published method. Briefly, 1 × 10^5 cells/mL were seeded into a 96-well plate (100 µL/well). After 24 h, flavonoids and their derivatives were administered at the concentration range of 31.25–500 µM. After 72 h, the viability was determined by resazurin assay (0.03 mg/mL of resazurin in PBS), where the fluorescence was measured after 2 h of incubation by the SpectraMax i3x microplate reader at a wavelength of 560/590 nm (excitation/emission). The concentration inhibiting half of the population (IC50) was determined using nonlinear regression in GraphPad Prism software. The selectivity index was calculated as the ratio between the IC50 for HDF (control, non-cancerous cells) and the IC50 for HOC/DOX (cancer cells).

[4] = tested on: doxorubicin-resistant human ovarian carcinoma (HOC/DOX); assay: Cytotoxicity (resazurin assay, 72 h); type: cell-based; conditions: for IC50: Homo sapiens, 72 h, resazurin assay; for SI (selectivity index): ratio IC50 for HDF / IC50 for HOC/DOX
Description: as §3

[5] = tested on: pooled male rat microsomal liver membranes; assay: Inhibition of lipid peroxidation induced by tert-butyl hydroperoxide; type: biochemical; conditions: male rat microsomes, read-out: ILP IC50
Description: The antiradical activity was evaluated by the ability to scavenge ABTS and DPPH radicals. Reducing capacity was assessed by the ability to reduce the Folin–Ciocalteu reagent (FCR) and ferric ions (FRAP). The ability to inhibit lipid peroxidation of pooled male rat microsomal liver membranes induced by tert-butyl hydroperoxide was also evaluated and the results were expressed as IC50 values.

[6] = tested on: lipopolysaccharide-stimulated macrophages (RAW 264.7); assay: Inhibition of nitric oxide production (Griess reagent); type: cell-based, murine; conditions: Mus musculus, RAW264.7; LPS 100 ng/mL, 24 h; highest tested concentration 100 µM; read-out: NO Production IC50
Description: The anti-inflammatory activity of the tested flavonolignans was determined as the ability to reduce nitric oxide production by murine macrophages (RAW 264.7) stimulated by bacterial lipopolysaccharides, as previously described. […] For the experiment, 1 × 10^6 cells/mL was seeded into the 96-well plate (100 µL/well). […] After 24 h, the medium was mixed with Griess reagent (0.04 g/mL), prepared freshly in deionized water at the ratio of 1:1. The absorbance was measured after 15 min at 540 nm by the SpectraMax i3x microplate reader. Cell viability was determined by resazurin assay.

[7] = tested on: Vibrio campbellii BAA 1119 (AI-2); assay: Viability of the quorum-sensing reporter culture (resazurin assay), AI-2 strain; type: cell-based; conditions: BAA1119, V. campbellii BAA 1119, resazurin assay, read-out: IC50 (concentration that halved the viability)
Source text: Commercially available strains of Vibrio campbellii were used to evaluate the ability of flavonoids and their derivatives to inhibit bacterial quorum sensing. V. campbellii uses two types of autoinducing molecules for its communication—N-acyl-homoserine lactones (Autoinducer I, AI-1, strain BAA 1118) and furanosyl borate diester (Autoinducer II, AI-2, strain BAA 1119). AI-1-based communication is mainly used by Gram-negative bacteria, while AI-2-based communication is found in both Gram-negative and Gram-positive bacteria. The mutant strains of V. campbellii BA1118 and BA1119 respond only to AI-1 or AI-2, respectively, and the response to the respective AI concentration is measured as luminescence. The higher the AI concentration, the higher the luminescence signal. The ability to inhibit the communication was expressed as the selectivity index (SI), calculated as the ratio between the concentration that halved the viability (IC50) and the concentration that halved the communication (EC50) of the respective V. campbellii strains. […] The antimicrobial activity of quorum-sensing inhibitors is undesirable because it creates a selection pressure and can lead to the development of resistance.
The inhibition of bacterial extracellular communication was measured using Vibrio campbellii strains BAA-1118 and BAA-1119. The experiment was performed according to the methods of Szemerédi et al.. Briefly, 5 × 10^5 CFU/mL (colony-forming units per milliliter) were seeded in an Autoinducer Bioassay medium (NaCl 17.5 g/L, MgSO4 12.3 g/L, Casamino acids 2 g/L, 10 mL of 1 M potassium phosphate pH 7.0, 10 mL of 0.1 M L-arginine, and 10 mL of glycerol in 970 mL of deionized water) in a 96-well plate. Immediately, the tested compounds were added at the final concentration of 0.2–200 µM and luminescence was recorded for 16 h by a SpectraMax i3x microplate reader set at 30 °C, an integration time of 10,000 ms, and shaking for 60 s before measurement. […] The selectivity index was calculated as the […]. The EC50 and IC50 were calculated using GraphPad Prism software version 5.00 for Windows with a nonlinear regression curve fit.

| SMILES | Effect on viability in combination with chloramphenicol ([1]; flavonoid 40 µM) | Effect on viability in combination with gentamicin ([1]; flavonoid 40 µM) | Effect on viability in combination with colistin [2] | Effect on viability in combination with imipenem [2] | IC50 [3] | IC50 [4] | SI (selectivity index) [4] | IC50 [5] | IC50 [6] | IC50 [7] | Effect on viability in combination with gentamicin ([1]; flavonoid 5 µM) | Gentamicin-resistant phenotype of S. aureus (result in words) ([1]; gentamicin breakpoint concentration, compound 5 µM) | Growth in combination with chloramphenicol ([1]; chloramphenicol breakpoint concentration, compound 40 µM as stated in the text) |
| --- | --- | --- | --- | --- | --- | --- | --- | --- | --- | --- | --- | --- | --- |
| COc1cc([C@H]2Oc3cc([C@H]4Oc5cc(O)cc(O)c5C(=O)[C@@H]4O)ccc3O[C@@H]2CO)ccc1O [3a, silybin A, reference compound] | - | - | - | - | 109 µM | 236 µM | 0.46 | 213 µM | 53.9 ± 4.9 µM | 120 ± 3.1 µM |  |  |  |
| COc1cc([C@@H]2Oc3cc([C@H]4Oc5cc(O)cc(O)c5C(=O)[C@@H]4O)ccc3O[C@H]2CO)ccc1O [3b, silybin B, reference compound] | - | - | - | - | 83.3 ± 5.4 µM | 202 µM | 0.41 | 291 µM | 55.6 ± 5.5 µM | 152 ± 2.4 µM |  |  |  |
| O=C1c2c(O)cc(O)cc2OC(c2ccc(O)c(O)c2)C1O (centres unmarked) [compound 1, taxifolin, reference compound] | - |  | - | - | 93.8 ± 3.7 µM | 183 µM | 0.51 | 16.3 ± 1.1 µM | 52.4 ± 1.2 µM | 80 ± 1.7 µM |  |  |  |
| O=c1c(O)c(-c2ccc(O)c(O)c2)oc2cc(O)cc(O)c12 [compound 2, quercetin, reference compound] | - | - | - | - | 54.8 ± 2.7 µM | 182 µM | 0.30 | 39 ± 2.9 µM | 14.6 ± 2.1 µM | 10.6 ± 0.5 µM |  |  |  |
| COc1cc(C2Oc3cc(-c4oc5cc(O)cc(O)c5c(=O)c4O)ccc3OC2CO)ccc1O (centres unmarked) [compound 4, 2,3-dehydrosilybin AB, reference compound] | - |  | - | - |  | 23.5 ± 1.5 µM | 0.71 | 34.6 ± 2.3 µM | 27.9 ± 0.5 µM | 25.3 ± 1 µM | reversion of resistance [5 µM] | reversed |  |
| COc1cc([C@@H]2Oc3c(O)cc([C@H]4Oc5cc(O)cc(O)c5C(=O)[C@@H]4O)cc3[C@H]2CO)ccc1O [compound 5, silychristin A, reference compound] | - | - | - | - | 115 µM | 205 µM | 0.56 | 129 µM | 72.5 ± 5.4 µM | > 200 µM |  |  |  |
| COc1cc([C@@H]2Oc3c(O)cc(-c4oc5cc(O)cc(O)c5c(=O)c4O)cc3[C@H]2CO)ccc1O [compound 6, 2,3-dehydrosilychristin A, reference compound] |  | - | - | - | 44.2 ± 2.1 µM | 75.7 ± 8.6 µM | 0.58 | 51.9 ± 2.2 µM | 42.1 ± 2.7 µM | 11 ± 0.4 µM |  |  | 69% |
| O=C1c2c(cc(O)c(Br)c2O)O[C@H](c2ccc(O)c(O)c2)[C@H]1O [compound 7, 6-Bromotaxifolin] | - |  | - | - | 122 µM | 347 µM | 0.35 | 201 µM | 78.4 ± 7.8 µM | 19.7 ± 1 µM |  |  |  |
| O=C1c2c(O)c(Br)c(O)c(Br)c2O[C@H](c2ccc(O)c(O)c2)[C@H]1O [compound 8, 6,8-dibromotaxifolin] | - |  | - | - | 158 µM | 233 µM | 0.68 | 22.5 ± 1 µM | 62.2 ± 4.2 µM | 109.3 ± 0.8 µM |  |  |  |
| O=c1c(O)c(-c2ccc(O)c(O)c2)oc2c(Br)c(O)cc(O)c12 [compound 9, 8-bromoquercetin] | - | - | - | - | 132 µM | 171 µM | 0.77 | 38.3 ± 1.9 µM | > 100 µM | 1.1 ± 0.1 µM |  |  |  |
| O=c1c(O)c(-c2ccc(O)c(O)c2)oc2c(Br)c(O)c(Br)c(O)c12 [compound 10, 6,8-dibromoquercetin] | - | - | - | - | 55 ± 1.9 µM | 54.2 ± 0.3 µM | 1.02 | 28.6 ± 1.1 µM | 40.6 ± 2.6 µM | 3.5 ± 0.1 µM |  |  |  |

Source: article PMC9738062, “Selectively Halogenated Flavonolignans—Preparation and Antibacterial Activity” (International Journal of Molecular Sciences, 2022)
